Patent US20130225641A1, “ANTICANCER COMPOUNDS AND PREPARATION METHODS THEREOF” (priority 2010, published 2013)

Key:
[1] = tested on: VEGFR protein kinase; assay: Inhibition of VEGFR protein kinase activity (phosphorylated VEGFR, western blotting) in HUMEC cells; type: cell-based, human; conditions: 1 hour treatment, phosphorylated VEGFR level, read-out: median inhibitory concentration (IC50) for inhibiting the activity of VEGFR protein kinase
From the text: VEGFR is a vascular endothelial growth factor receptor regulating the growth, migration, and differentiation of vascular endothelial cells, and determining the start of angiogenesis of tumors. After being stimulated by vascular endothelial cell growth factors, VEGFR forms a dimer, activates its kinase, and makes themselves phosphorylated. The level of the activity of VEGFR protein kinase is detected according to the phosphorylated degree of VEGFR. In this test, we used human microvascular endothelial cells (HUMECs) to determine whether ZTP and ZTQ can inhibit the activity of VEGFR protein kinase. HUMEC cells were subjected to adherent growth in DMEM medium (GIBCO-BRL) containing 10% bovine calf serum at 37° C. in 5% CO2. The cells were treated with various concentrations of ZTP and ZTQ (0, 10 ng/ml, 100 ng/ml, 500 ng/ml, 1 μg/ml, and 10 μg/ml), and the cell proteins were collected 1 hour after treatment. The protein content was determined through Bradford method, and then the level of phosphorylated VEGFR was assayed through western blotting. Immunoblotting experiment: denatured polyacrylamide gel was used for separation of the proteins with a sample load of 60 μg of total proteins. The proteins were electro-transferred onto a PVDF membrane and blocked. […] The membrane was exposed to an X-ray film, and the results were analyzed by a gel imaging system. […]

[2] = tested on: D145; assay: MTT cytotoxicity, D145; type: cell-based; conditions: Homo sapiens, D145, Prostatic, 72 hrs, read-out: LC50 (the source's name)
Protocol: (§1) The cytotoxicity of ZTP and ZTQ was analyzed by using human tumor cell lines. Human tumor cell lines were purchased from ATCC and NCI, and cultured in DMEM medium containing 10% FBS at 37° C. in 5% CO2 in an incubator. The cells grown to confluence were used for cytotoxicity analysis. The cells were digested with trypsin, washed with the culture medium, and then counted. 33 tumor cell lines were cultured. The cells were seeded at a density of 3000-6000 cells/well in a 96-well plate and incubated for 16-24 hrs. Then, various concentrations of ZTP or ZTQ dissolved in DMSO were added, and cultured for 72 hrs. The drug-treated cells and control cells were analyzed by MTT.

[3] = tested on: HCT-116; assay: MTT cytotoxicity, HCT-116; type: cell-based; conditions: Homo sapiens, HCT-116, Colonic, 72 hrs, read-out: LC50 (the source's name)
Protocol: as §1

[4] = tested on: HT29; assay: MTT cytotoxicity, HT29; type: cell-based; conditions: Homo sapiens, HT-29, HT29, Colonic, 72 hrs, read-out: LC50 (the source's name)
Protocol: as §1

[5] = tested on: CCL-225; assay: MTT cytotoxicity, CCL-225; type: cell-based; conditions: Homo sapiens, CCL-225, Colonic, 72 hrs, read-out: LC50 (the source's name)
Protocol: as §1

[6] = tested on: A549; assay: MTT cytotoxicity, A549; type: cell-based; conditions: Homo sapiens, A549, Lung, 72 hrs, read-out: LC50 (the source's name)
Protocol: as §1

[7] = tested on: MDA-MB-435; assay: MTT cytotoxicity, MDA-MB-435; type: cell-based; conditions: Homo sapiens, MDA-MB-435, Breast, 72 hrs, read-out: LC50 (the source's name)
Protocol: as §1

[8] = tested on: AU-565; assay: MTT cytotoxicity, AU-565; type: cell-based; conditions: Homo sapiens, AU565, AU-565, Breast, 72 hrs, read-out: LC50 (the source's name)
Protocol: as §1

[9] = tested on: BT-549; assay: MTT cytotoxicity, BT-549; type: cell-based; conditions: Homo sapiens, BT-549, Breast, 72 hrs, read-out: LC50 (the source's name)
Protocol: as §1

[10] = tested on: MCF-7; assay: MTT cytotoxicity, MCF-7; type: cell-based; conditions: Homo sapiens, MCF7, MCF-7, Breast, 72 hrs, read-out: LC50 (the source's name)
Protocol: as §1

[11] = tested on: ACHN; assay: MTT cytotoxicity, ACHN; type: cell-based; conditions: Homo sapiens, Renal, 72 hrs, read-out: LC50 (the source's name)
Protocol: as §1

[12] = tested on: SN12C; assay: MTT cytotoxicity, SN12C; type: cell-based; conditions: Homo sapiens, Renal, 72 hrs, read-out: LC50 (the source's name)
Protocol: as §1

[13] = tested on: SKOV3; assay: MTT cytotoxicity, SKOV3; type: cell-based; conditions: Homo sapiens, SK-OV-3, SKOV3, Ovarian, 72 hrs, read-out: LC50 (the source's name)
Protocol: as §1

[14] = tested on: SGC-7901; assay: MTT cytotoxicity, SGC-7901; type: cell-based; conditions: Homo sapiens, SGC-7901, Gastric, 72 hrs, read-out: LC50 (the source's name)
Protocol: as §1

[15] = tested on: EC109; assay: MTT cytotoxicity, EC109; type: cell-based; conditions: Homo sapiens, ECa-109, EC109, Esophageal, 72 hrs, read-out: LC50 (the source's name)
Protocol: as §1

| Structure (SMILES) | IC50 [1] | CC50 [2] | CC50 [3] | CC50 [4] | CC50 [5] | CC50 [6] | CC50 [7] | CC50 [8] | CC50 [9] | CC50 [10] | CC50 [11] | CC50 [12] | CC50 [13] | CC50 [14] | CC50 [15] |
| --- | --- | --- | --- | --- | --- | --- | --- | --- | --- | --- | --- | --- | --- | --- | --- |
| CNC(=O)c1cc(Oc2ccc(NC(=S)Nc3ccc(Cl)c(C(F)(F)F)c3)cc2)ccn1 [ZTP, N-[4-chloro-3-(trifluoromethyl)phenyl]-[4-(N-methyl-formamide)(4-pyridyloxy)phenyl]-thiourea] | 0.021 µM | 1.59 µM | 0.87 µM | 1.19 µM | 1.98 µM | 1.22 µM | 1.37 µM | 1.89 µM | 1.09 µM | 2.21 µM | 1.61 µM | 3.21 µM | 1.19 µM | 1.31 µM | 1.48 µM |
| CNC(=O)c1cc(Sc2ccc(NC(=S)Nc3ccc(Cl)c(C(F)(F)F)c3)cc2)ccn1 [ZTQ, N-[4-chloro-3-(trifluoromethyl)phenyl]-[4-(N-methyl-formamide)(4-pyridylthio)phenyl]-thiourea] | 0.009 µM | 1.23 µM | 0.76 µM | 0.92 µM | 1.43 µM | 1.01 µM | 1.12 µM | 1.37 µM | 0.89 µM | 1.7 µM | 1.21 µM | 2.2 µM | 0.98 µM | 1.03 µM | 1.12 µM |
